Test results published in patent US10508087B2, “Crystalline forms of trisodium supramolecular complex comprising valsartan and AHU-377 and methods thereof” (CRYSTAL PHARMATECH CO., LTD., priority 2014, dated 2019).
Several values for one entry are separate records, joined by “and”; a condition that tells them apart may be missing. Equal values may be shown once. Entries after “also recorded” stand apart in the source; their conditions may differ. Read-outs that look alike come from different tables or passages of the source.

Key:
[1] = Crystal form stability of drug substance in different temperature and humidity conditions; format: physicochemical
Description: The drug substance of Form II was subjected to different relative humidity levels at 40° C. (±2° C.), samples were pulled out and evaluated for crystal form after a specified time period, and the results are summarized in Table 10.
The drug substance of Form II was subjected to different temperatures at RH 32% (±5%), samples were pulled out and evaluated for crystal form after a specified time period, the results are summarized in Table 11.
The drug substance of Form II was packed with PE to evaluate the stability.
The drug substance of Form II was stored in sealed glass vial under ambient conditions for 9 months.

[2] = not given; remark: listed apart in the source
[3] = drug substance powder, individual determination, trihydrate

Question: Which “moisture uptake compared to patent form (DVS)” value (humidity levels 20% RH to 60% RH at 25° C., hydrate) does the source give for `CCCCC(=O)N(Cc1ccc(-c2ccccc2-c2nnn[n-]2)cc1)[C@H](C(=O)[O-])C(C)C.CCOC(=O)[C@H](C)C[C@@H](Cc1ccc(-c2ccccc2)cc1)NC(=O)CCC(=O)[O-].O.[Na+].[Na+].[Na+]` [Form I, trisodium [3-((1S,3R)-1-biphenyl-4-ylmethyl-3-ethoxycarbonyl-1-butylcarbamoyl) propionate-(S)-3′-methyl-2′-(pentanoyl{2″-(tetrazol-5-ylate)biphenyl-4′-ylmethyl}amino) butyrate] hydrate] here?
Answer: The value was “less hygroscopic; also recorded: less moisture uptake”.

Question: What does the source list for `CCCCC(=O)N(Cc1ccc(-c2ccccc2-c2nnn[n-]2)cc1)[C@H](C(=O)[O-])C(C)C.CCOC(=O)[C@H](C)C[C@@H](Cc1ccc(-c2ccccc2)cc1)NC(=O)CCC(=O)[O-].O.O.O.[Na+].[Na+].[Na+]` [Form II, trisodium [3-((1S,3R)-1-biphenyl-4-ylmethyl-3-ethoxycarbonyl-1-butylcarbamoyl) propionate-(S)-3′-methyl-2′-(pentanoyl{2″-(tetrazol-5-ylate)biphenyl-4′-ylmethyl}amino) butyrate] trihydrate]?
Answer: Crystal form stability, accelerated ([1]; packed with PE, 40° C., RH 75%, one month): remained stable; Crystal form stability ([1]; sealed glass vial, ambient conditions, 9 months): remained stable; Compressibility Index ([2]; (Tapped Density-Bulk Density)/Tapped Density*100%, individual determination, trihydrate): 22% and 23% (2×); Compressibility Index Average ([2]; average of the determinations): 22%; flowability compared with patent form ([2]; by compressibility index): better; Bulk Density [2, 3]: 0.197 g/mL and 0.229 g/mL and 0.258 g/mL; Tapped Density [2, 3]: 0.251 g/mL and 0.297 g/mL and 0.337 g/mL; Flowability ([2]; rating by compressibility index, USP<1174>, trihydrate): Passable; moisture uptake compared to patent form (DVS) (humidity levels 50% RH to 60% RH at 25° C., trihydrate): less hygroscopic; also recorded: less moisture uptake
